{"source": "paper PMC3081989", "about": "(Biochemistry, 2010)", "key": {"hRXRα-LBD homodimer": {"test_system": "hRXRα-LBD homodimer", "experiment": "hydrogen deuterium exchange mass spectrometry", "format": "binding, human"}, "humans": {"test_system": "humans", "settings": "cited from earlier work"}, "[1]": {"biological_target": "T1, hRXRα-LBD:9cRA homodimers (Homo sapiens, UniProt P19793)", "T1 sequence (P19793 223-462)": "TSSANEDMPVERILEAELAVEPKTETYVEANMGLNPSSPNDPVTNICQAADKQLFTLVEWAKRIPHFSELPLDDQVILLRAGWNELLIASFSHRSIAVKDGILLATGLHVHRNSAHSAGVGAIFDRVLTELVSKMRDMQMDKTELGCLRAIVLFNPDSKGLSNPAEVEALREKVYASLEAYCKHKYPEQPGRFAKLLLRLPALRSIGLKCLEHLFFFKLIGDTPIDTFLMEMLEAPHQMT", "experiment": "isothermal titration calorimetry", "settings": "37 °C, buffer C pH 8.0, single-site binding model"}, "[2]": {"biological_target": "GRIP-1 (NCOA2/TIF2) NR-box II coactivator peptide, 13-mer (UniProt Q15596)", "experiment": "ITC", "settings": "pH 8.0, 25 °C, 50 mM NaCl, buffer C: 10 mM Tris"}}, "note": "Where a SMILES comes first, the peptide text is derived from it.", "data": [{"compound": "CC1=C(/C=C/C(C)=C\\C=C\\C(C)=C\\C(=O)O)C(C)(C)CCC1", "note": "[9cRA, 9-cis-retinoic acid]", "values": [{"measurement": "reduction in deuterium incorporation, peptide L419-F438 (H11)", "setting": "hRXRα-LBD homodimer; following 15 s of deuterium incorporation, 9cRA alone", "value": "> 20", "unit": "%"}, {"measurement": "rate of deuterium incorporation, H12 region", "setting": "hRXRα-LBD homodimer; hRXRα-LBD:9cRA versus apo-hRXRα-LBD, GRIP-1 added to hRXRα-LBD:9cRA", "value": "unaltered rates of incorporation"}, {"measurement": "change in deuterium incorporation of peptides around the ligand binding pocket", "setting": "hRXRα-LBD homodimer; relative to apo-hRXRα-LBD, upon 9cRA binding", "value": "10–37%"}, {"measurement": "reduction in deuterium incorporation, peptide L301-L308 (H4)", "setting": "hRXRα-LBD homodimer; text: upon the addition of GRIP-1 versus in the presence of 9cRA alone", "value": 12, "unit": "%"}, {"measurement": "toxicity", "setting": "humans; oral administration to humans", "value": "displays significant toxicity with oral administration to humans"}]}, {"compound": "CC[C@H](C)[C@H](NC(=O)[C@H](CCCCN)NC(=O)[C@H](Cc1c[nH]cn1)NC(=O)[C@@H](N)CCCCN)C(=O)N[C@@H](CC(C)C)C(=O)N[C@@H](Cc1c[nH]cn1)C(=O)N[C@@H](CCCNC(=N)N)C(=O)N[C@@H](CC(C)C)C(=O)N[C@@H](CC(C)C)C(=O)N[C@@H](CCC(N)=O)C(=O)N[C@@H](CC(=O)O)C(=O)N[C@@H](CO)C(=O)N[C@@H](CO)C(=O)O", "note": "[GRIP-1] (H-KHKILHRLLQDSS-OH)", "values": [{"measurement": "Kd", "setting": "[1]", "value": "1000 ± 50", "unit": "nM"}]}, {"compound": "C=C(c1ccc(C(=O)O)cc1)c1cc2c(cc1C)C(C)(C)CCC2(C)C", "note": "[Targretin]", "values": [{"measurement": "dose limiting toxicities compared with 9cRA", "setting": "humans; oral treatment of cutaneous T-cell lymphoma", "value": "significantly fewer dose limiting toxicities than 9cRA"}]}, {"compound": "Retinoid X receptor alpha ligand-binding domain, homodimer loaded with 9-cis-retinoic acid (hRXRalpha-LBD:9cRA)", "values": [{"measurement": "ΔH", "setting": "[2]", "value": -9.15, "unit": "kcal/mol"}]}]}
